According to ChEMBL document CHEMBL4507286 (2021):

Tests used:
[1] = molecular target: Ephrin type-B receptor 3 (Homo sapiens) (UniProt P54753)
[2] = tested on: Mast/stem cell growth factor receptor Kit (Homo sapiens), P10721 [V559D,T670I]
[3] = molecular target: Citron Rho-interacting kinase (Homo sapiens) (UniProt O14578)
[4] = molecular target: Ephrin type-B receptor 6 (Homo sapiens) (UniProt O15197)
[5] = molecular target: Serine/threonine-protein kinase tousled-like 1 (Homo sapiens) (UniProt Q9UKI8)
[6] = molecular target: Leucine-rich repeat serine/threonine-protein kinase 2 (Homo sapiens) (UniProt Q5S007)
[7] = tested on: Tyrosine-protein kinase ABL1 (Homo sapiens), P00519 [Q252H]
[8] = molecular target: Ankyrin repeat and protein kinase domain-containing protein 1 (Homo sapiens) (UniProt Q8NFD2)
[9] = molecular target: G protein-coupled receptor kinase 3 (Homo sapiens) (UniProt P35626)
[10] = molecular target: Serine/threonine-protein kinase NIM1 (Homo sapiens) (UniProt Q8IY84)
[11] = molecular target: Receptor tyrosine-protein kinase erbB-4 (Homo sapiens) (UniProt Q15303)
[12] = tested on: Receptor-type tyrosine-protein kinase FLT3 (Homo sapiens), P36888 [UNDEFINED MUTATION]
[13] = molecular target: Wee1-like protein kinase (Homo sapiens) (UniProt P30291)
[14] = molecular target: Beta-3 adrenergic receptor (Homo sapiens) (UniProt P13945); conditions: Compound concentration 10.0 uM
[15] = molecular target: AP2-associated protein kinase 1 (Homo sapiens) (UniProt Q2M2I8)
[16] = molecular target: Casein kinase I isoform alpha (Homo sapiens) (UniProt P48729)
[17] = molecular target: Calcium/calmodulin-dependent protein kinase type II subunit alpha (Homo sapiens) (UniProt Q9UQM7)
[18] = molecular target: Mitotic checkpoint serine/threonine-protein kinase BUB1 (Homo sapiens) (UniProt O43683)
[19] = molecular target: MAP kinase-activated protein kinase 2 (Homo sapiens) (UniProt P49137)
[20] = molecular target: Rho-associated protein kinase 2 (Homo sapiens) (UniProt O75116)
[21] = tested on: Phosphatidylinositol 4,5-bisphosphate 3-kinase catalytic subunit alpha isoform (Homo sapiens), P42336 [E545A]
[22] = molecular target: Casein kinase II subunit alpha' (Homo sapiens) (UniProt P19784)
[23] = molecular target: Tyrosine-protein kinase ABL1 (Homo sapiens) (UniProt P00519)
[24] = molecular target: Alpha-1B adrenergic receptor (Homo sapiens) (UniProt P35368); conditions: Compound concentration 10.0 uM
[25] = molecular target: Interleukin-1 receptor-associated kinase 3 (Homo sapiens) (UniProt Q9Y616)
[26] = tested on: Mast/stem cell growth factor receptor Kit (Homo sapiens), P10721 [A829P]
[27] = molecular target: Mitogen-activated protein kinase 8 (Homo sapiens) (UniProt P45983)
[28] = molecular target: STE20-like serine/threonine-protein kinase (Homo sapiens) (UniProt Q9H2G2)
[29] = molecular target: Receptor-interacting serine/threonine-protein kinase 4 (Homo sapiens) (UniProt P57078)
[30] = molecular target: Calcium/calmodulin-dependent protein kinase type II subunit gamma (Homo sapiens) (UniProt Q13555)
[31] = tested on: Leucine-rich repeat serine/threonine-protein kinase 2 (Homo sapiens), Q5S007 [G2019S]
[32] = molecular target: Cyclin-dependent kinase-like 3 (Homo sapiens) (UniProt Q8IVW4)
[33] = molecular target: GABA-A receptor; anion channel (Rattus norvegicus) (UniProt O09028+P15431+P18506+P18508+P19969+P20236+P23574+P23576+P28471+P28473+P30191+P62813+P63079+P63138+Q91ZM7+Q9ES14); conditions: Compound concentration 10.0 uM
[34] = molecular target: cGMP-dependent protein kinase 2 (Homo sapiens) (UniProt Q13237)
[35] = molecular target: Serine/threonine-protein kinase ULK3 (Homo sapiens) (UniProt Q6PHR2)
[36] = molecular target: Serine/threonine-protein kinase haspin (Homo sapiens) (UniProt Q8TF76)
[37] = tested on: Tyrosine-protein kinase ABL1 (Homo sapiens), P00519 [Y253F]
[38] = molecular target: Calcium/calmodulin-dependent protein kinase type II subunit beta (Homo sapiens) (UniProt Q13554)
[39] = molecular target: Mitogen-activated protein kinase kinase kinase 14 (Homo sapiens) (UniProt Q99558)
[40] = molecular target: Ribosomal protein S6 kinase alpha-5 (Homo sapiens) (UniProt O75582)
[41] = molecular target: Serine/threonine-protein kinase pim-1 (Homo sapiens) (UniProt P11309)
[42] = molecular target: Mitogen-activated protein kinase kinase kinase 20 (Homo sapiens) (UniProt Q9NYL2)
[43] = molecular target: Serine/threonine-protein kinase Nek3 (Homo sapiens) (UniProt P51956)
[44] = Compound concentration 1000.0 nM
[45] = Compound concentration 100.0 nM

Ankyrin repeat and protein kinase domain-containing protein 1 (Homo sapiens), sequence (Q8NFD2 whole entry, the tested form may be a part): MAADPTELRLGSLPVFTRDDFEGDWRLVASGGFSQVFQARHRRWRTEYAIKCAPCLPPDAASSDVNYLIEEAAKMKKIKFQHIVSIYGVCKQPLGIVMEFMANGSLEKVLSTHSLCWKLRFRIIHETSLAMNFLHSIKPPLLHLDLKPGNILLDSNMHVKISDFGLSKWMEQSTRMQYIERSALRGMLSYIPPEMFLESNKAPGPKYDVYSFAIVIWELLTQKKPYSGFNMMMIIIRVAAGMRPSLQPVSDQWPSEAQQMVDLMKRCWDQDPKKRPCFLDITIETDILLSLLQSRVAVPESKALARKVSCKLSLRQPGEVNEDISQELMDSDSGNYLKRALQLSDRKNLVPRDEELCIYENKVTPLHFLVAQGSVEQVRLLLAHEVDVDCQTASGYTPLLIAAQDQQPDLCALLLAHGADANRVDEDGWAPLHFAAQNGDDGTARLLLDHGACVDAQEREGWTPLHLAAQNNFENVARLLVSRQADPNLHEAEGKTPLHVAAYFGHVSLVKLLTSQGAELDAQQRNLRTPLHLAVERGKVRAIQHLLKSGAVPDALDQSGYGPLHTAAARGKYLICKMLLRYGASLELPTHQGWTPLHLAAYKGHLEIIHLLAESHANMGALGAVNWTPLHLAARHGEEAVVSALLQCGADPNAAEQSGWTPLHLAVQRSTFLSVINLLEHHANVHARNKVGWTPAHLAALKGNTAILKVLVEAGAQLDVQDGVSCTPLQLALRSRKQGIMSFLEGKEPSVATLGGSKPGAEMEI
Interleukin-1 receptor-associated kinase 3 (Homo sapiens), sequence (Q9Y616 whole entry): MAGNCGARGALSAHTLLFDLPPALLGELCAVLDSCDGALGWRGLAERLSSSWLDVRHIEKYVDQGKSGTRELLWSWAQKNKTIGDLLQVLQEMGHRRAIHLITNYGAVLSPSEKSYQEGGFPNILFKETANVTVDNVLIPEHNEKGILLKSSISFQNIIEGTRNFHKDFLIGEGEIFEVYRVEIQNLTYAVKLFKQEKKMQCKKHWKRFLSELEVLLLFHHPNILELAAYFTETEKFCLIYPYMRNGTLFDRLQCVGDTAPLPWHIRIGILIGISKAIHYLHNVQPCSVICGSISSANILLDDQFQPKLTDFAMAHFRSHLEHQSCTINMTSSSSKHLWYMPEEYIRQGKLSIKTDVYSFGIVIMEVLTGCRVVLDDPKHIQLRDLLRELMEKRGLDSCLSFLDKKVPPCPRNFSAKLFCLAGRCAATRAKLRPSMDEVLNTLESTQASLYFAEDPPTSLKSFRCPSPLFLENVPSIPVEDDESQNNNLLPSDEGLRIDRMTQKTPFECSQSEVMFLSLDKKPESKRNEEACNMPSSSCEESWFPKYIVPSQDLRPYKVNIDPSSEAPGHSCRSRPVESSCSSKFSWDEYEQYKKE
Mast/stem cell growth factor receptor Kit (Homo sapiens), P10721 [A829P], sequence (P10721 whole entry A829P): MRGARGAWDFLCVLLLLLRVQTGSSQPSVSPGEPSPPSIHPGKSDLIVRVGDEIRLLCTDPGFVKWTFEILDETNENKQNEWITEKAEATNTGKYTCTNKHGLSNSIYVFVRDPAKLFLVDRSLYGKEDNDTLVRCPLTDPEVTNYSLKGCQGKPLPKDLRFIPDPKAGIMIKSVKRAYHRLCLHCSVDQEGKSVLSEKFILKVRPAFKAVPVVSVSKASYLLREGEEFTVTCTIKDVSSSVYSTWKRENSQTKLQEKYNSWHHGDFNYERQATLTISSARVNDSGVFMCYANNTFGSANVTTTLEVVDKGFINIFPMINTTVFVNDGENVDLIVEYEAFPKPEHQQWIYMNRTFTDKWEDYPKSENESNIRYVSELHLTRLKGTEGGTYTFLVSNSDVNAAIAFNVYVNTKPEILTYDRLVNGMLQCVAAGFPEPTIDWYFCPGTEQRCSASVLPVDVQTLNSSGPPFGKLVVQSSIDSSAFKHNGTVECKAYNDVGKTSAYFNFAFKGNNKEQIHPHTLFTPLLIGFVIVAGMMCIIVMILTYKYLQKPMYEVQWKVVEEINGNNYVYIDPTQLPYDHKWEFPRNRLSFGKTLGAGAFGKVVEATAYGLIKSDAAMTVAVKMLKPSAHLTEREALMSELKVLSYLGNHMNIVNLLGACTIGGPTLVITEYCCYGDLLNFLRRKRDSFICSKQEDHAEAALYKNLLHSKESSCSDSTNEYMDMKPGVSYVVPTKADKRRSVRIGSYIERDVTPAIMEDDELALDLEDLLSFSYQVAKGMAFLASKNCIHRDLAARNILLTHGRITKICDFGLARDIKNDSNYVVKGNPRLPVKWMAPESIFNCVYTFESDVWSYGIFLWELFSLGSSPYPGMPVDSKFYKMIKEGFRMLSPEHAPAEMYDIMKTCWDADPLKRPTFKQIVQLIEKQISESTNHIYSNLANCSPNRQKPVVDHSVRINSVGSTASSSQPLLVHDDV
Receptor-interacting serine/threonine-protein kinase 4 (Homo sapiens), sequence (P57078 whole entry): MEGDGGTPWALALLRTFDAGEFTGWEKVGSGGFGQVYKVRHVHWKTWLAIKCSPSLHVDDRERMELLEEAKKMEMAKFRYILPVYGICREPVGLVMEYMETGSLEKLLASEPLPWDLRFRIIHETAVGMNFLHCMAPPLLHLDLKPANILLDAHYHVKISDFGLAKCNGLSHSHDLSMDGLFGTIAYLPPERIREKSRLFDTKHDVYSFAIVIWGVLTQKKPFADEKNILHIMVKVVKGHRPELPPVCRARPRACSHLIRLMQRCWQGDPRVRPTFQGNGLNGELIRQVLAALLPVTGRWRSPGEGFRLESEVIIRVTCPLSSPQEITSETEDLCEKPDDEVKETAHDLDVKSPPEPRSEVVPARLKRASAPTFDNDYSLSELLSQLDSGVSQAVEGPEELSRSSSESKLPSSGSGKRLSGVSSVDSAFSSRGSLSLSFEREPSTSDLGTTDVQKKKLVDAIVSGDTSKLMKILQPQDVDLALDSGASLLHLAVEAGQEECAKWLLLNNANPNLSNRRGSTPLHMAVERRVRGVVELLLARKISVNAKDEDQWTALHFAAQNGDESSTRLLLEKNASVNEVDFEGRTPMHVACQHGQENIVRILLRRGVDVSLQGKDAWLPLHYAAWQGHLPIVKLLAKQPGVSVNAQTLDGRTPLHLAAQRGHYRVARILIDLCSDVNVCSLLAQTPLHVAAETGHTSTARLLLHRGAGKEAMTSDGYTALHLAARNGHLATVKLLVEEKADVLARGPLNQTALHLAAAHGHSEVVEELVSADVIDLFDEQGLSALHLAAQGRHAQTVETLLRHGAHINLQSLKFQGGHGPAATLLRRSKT
Calcium/calmodulin-dependent protein kinase type II subunit alpha (Homo sapiens), sequence (Q9UQM7 whole entry): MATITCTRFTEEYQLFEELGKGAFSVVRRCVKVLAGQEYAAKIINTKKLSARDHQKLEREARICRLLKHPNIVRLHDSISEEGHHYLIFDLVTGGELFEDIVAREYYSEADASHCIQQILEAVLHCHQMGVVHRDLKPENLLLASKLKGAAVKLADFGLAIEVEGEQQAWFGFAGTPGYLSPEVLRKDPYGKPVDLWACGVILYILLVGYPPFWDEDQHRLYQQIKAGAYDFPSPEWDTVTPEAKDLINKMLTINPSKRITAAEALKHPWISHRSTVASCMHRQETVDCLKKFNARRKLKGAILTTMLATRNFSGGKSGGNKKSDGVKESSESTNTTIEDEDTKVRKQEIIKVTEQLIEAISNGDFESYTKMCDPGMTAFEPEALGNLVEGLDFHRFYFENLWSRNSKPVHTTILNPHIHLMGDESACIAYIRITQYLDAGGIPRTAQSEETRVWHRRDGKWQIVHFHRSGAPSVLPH
Serine/threonine-protein kinase NIM1 (Homo sapiens), sequence (Q8IY84 whole entry): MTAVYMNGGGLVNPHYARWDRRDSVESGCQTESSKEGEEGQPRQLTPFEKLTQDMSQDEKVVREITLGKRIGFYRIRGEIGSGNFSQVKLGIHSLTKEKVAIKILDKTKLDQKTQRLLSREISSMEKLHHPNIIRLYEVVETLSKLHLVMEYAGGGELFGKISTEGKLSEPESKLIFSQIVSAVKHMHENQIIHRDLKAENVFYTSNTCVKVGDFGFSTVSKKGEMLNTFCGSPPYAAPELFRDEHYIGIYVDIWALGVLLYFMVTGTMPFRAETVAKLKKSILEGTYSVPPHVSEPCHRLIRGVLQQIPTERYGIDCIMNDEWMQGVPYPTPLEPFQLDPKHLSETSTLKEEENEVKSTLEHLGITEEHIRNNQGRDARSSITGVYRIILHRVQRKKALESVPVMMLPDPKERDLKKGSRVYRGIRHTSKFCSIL
Serine/threonine-protein kinase pim-1 (Homo sapiens), sequence (P11309 whole entry, looked up): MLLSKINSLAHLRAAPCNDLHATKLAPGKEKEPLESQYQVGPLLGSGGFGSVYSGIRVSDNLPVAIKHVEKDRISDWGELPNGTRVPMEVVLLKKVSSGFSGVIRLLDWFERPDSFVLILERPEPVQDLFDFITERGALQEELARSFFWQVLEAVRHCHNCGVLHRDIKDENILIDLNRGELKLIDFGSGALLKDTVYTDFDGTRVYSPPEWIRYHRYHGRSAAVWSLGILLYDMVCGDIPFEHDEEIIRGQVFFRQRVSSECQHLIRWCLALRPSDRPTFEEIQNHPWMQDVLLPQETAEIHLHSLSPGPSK
Alpha-1B adrenergic receptor (Homo sapiens), sequence (P35368 whole entry): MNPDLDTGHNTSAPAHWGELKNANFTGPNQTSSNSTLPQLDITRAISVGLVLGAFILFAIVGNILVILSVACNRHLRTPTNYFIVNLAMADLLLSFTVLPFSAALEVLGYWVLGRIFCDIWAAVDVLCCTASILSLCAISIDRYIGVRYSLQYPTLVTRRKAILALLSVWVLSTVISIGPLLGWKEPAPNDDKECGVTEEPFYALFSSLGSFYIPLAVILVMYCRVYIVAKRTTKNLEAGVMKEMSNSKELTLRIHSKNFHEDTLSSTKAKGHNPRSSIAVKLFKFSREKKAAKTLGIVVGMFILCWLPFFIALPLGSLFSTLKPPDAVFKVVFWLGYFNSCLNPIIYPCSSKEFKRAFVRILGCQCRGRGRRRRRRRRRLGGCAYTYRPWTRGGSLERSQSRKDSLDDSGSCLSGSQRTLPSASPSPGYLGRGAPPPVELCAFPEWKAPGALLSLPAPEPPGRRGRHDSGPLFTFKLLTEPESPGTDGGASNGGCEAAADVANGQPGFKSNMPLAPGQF

`C[C@H](NC(=O)Nc1cc2[nH]ncc2c(CO)n1)c1ccccn1` [ERKi-NC] showed a residual activity [1, 44] of 100%, a residual activity [2, 44] of 85.5% and a residual activity [3, 44] of 99.9%. It also gave a residual activity [4, 44] of 100%, a residual activity [5, 44] of 100% and a residual activity [6, 44] of 71.3%. The residual activity [7, 44] was 42.7%, the residual activity [8, 44] was 100% and the residual activity [9, 44] was 88.7%. For the same molecule, the residual activity [10, 44] was 100%, the residual activity [11, 44] was 100% and the residual activity [12, 44] was 100%. It also gave a residual activity [13, 44] of 100%, an inhibition [14] of 13.6% and a residual activity [15, 44] of 100%. The residual activity [16, 44] was 56.5%, the residual activity [17, 44] was 100% and the residual activity [18, 44] was 100%. The residual activity [19, 44] was 100%, the residual activity [20, 44] was 88.4% and the residual activity [21, 44] was 71.9%. It also gave a residual activity [22, 44] of 100%, a residual activity [23, 44] of 51.5% and an inhibition [24] of 1.42%. It also gave a residual activity [25, 44] of 99.3%, a residual activity [26, 44] of 100% and a residual activity [27, 44] of 63.3%. The residual activity [28, 44] was 76%, the residual activity [29, 44] was 100% and the residual activity [30, 44] was 100%. It also gave a residual activity [31, 44] of 88.8%, a residual activity [32, 44] of 100% and an inhibition [33] of 20.2%. For the same molecule, the residual activity [34, 44] was 100%, the residual activity [35, 44] was 98.9% and the residual activity [36, 44] was 72.1%. For the same molecule, the residual activity [37, 44] was 100%, the residual activity [38, 44] was 100% and the residual activity [39, 44] was 85%. For the same molecule, the residual activity [40, 44] was 100%, the residual activity [41, 44] was 78.2% and the residual activity [42, 44] was 74.7%. For the same molecule, the residual activity [43, 44] was 46.8%.

Work on `C[C@@H](NC(=O)Nc1cc2[nH]ncc2c(CO)n1)c1ccccc1` [ERKi] yielded a residual activity [1, 45] of 94.8%, a residual activity [2, 45] of 83.7% and a residual activity [3, 45] of 100%. It also gave a residual activity [4, 45] of 75.5%, a residual activity [5, 45] of 80.3% and a residual activity [6, 45] of 94.6%. For the same molecule, the residual activity [7, 45] was 88.4%, the residual activity [8, 45] was 78.2% and the residual activity [9, 45] was 60.8%. For the same molecule, the residual activity [10, 45] was 100%, the residual activity [11, 45] was 97.6% and the residual activity [12, 45] was 80.7%. The residual activity [13, 45] was 98.9%, the inhibition [14] was 24.1% and the residual activity [15, 45] was 52.5%. For the same molecule, the residual activity [16, 45] was 84.6%, the residual activity [17, 45] was 73.5% and the residual activity [18, 45] was 96%. For the same molecule, the residual activity [19, 45] was 100%, the residual activity [20, 45] was 44.7% and the residual activity [21, 45] was 78.4%. For the same molecule, the residual activity [22, 45] was 76%, the residual activity [23, 45] was 85.9% and the inhibition [24] was -2.72%. For the same molecule, the residual activity [25, 45] was 80%, the residual activity [26, 45] was 55.1% and the residual activity [27, 45] was 93.7%. The residual activity [28, 45] was 92.6%, the residual activity [29, 45] was 76% and the residual activity [30, 45] was 84.6%. It also gave a residual activity [31, 45] of 82.7%, a residual activity [32, 45] of 95.6% and an inhibition [33] of 46.2%. The residual activity [34, 45] was 76.1%, the residual activity [35, 45] was 68.1% and the residual activity [36, 45] was 53.7%. For the same molecule, the residual activity [37, 45] was 76.2%, the residual activity [38, 45] was 75.2% and the residual activity [39, 45] was 100%. The residual activity [40, 45] was 82.7%, the residual activity [41, 45] was 90.3% and the residual activity [42, 45] was 100%. The residual activity [43, 45] was 79.6%.
